molecular target: T1, human mPGES-1 (Homo sapiens, UniProt O14684); test: Test for mPGES-1 inhibitory activity (microsomal enzyme, PGE2 EIA); format: biochemical; conditions: microsomes from COS-1 cells transfected with human mPGES-1 cDNA; substrate PGH2 1 μM; 4° C., 4 minutes; PGE2 measured by EIA; read-out: h mPGES1 IC50
T1 construct: made in house; host or cells: COS-1 cells (transient transfection; microsomal fraction used as enzyme)
T1 sequence (O14684 1-152): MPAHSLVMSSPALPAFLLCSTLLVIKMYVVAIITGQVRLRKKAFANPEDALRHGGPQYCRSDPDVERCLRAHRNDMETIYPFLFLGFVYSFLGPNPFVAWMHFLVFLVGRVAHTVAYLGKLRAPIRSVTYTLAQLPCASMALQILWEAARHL
Procedure: Test Example 1: Test for mPGES-1 Inhibitory Activity
Microsomes were prepared from COS-1 cells transiently transfected with a plasmid containing human mPGES-1 cDNA, and used as mPGES-1 enzyme. The mPGES-1 enzyme was diluted with a sodium phosphate buffer (pH 7.2) containing reduced glutathione (2.5 mM) and EDTA (1 mM), DMSO or a DMSO solution of a test compound (final concentration of DMSO was 2%) was added to the enzyme, and the mixture was preincubated at 4° C. for 15 minutes. Then, PGH2 (Prostaglandin H2) as the substrate was added at a final concentration of 1 μM to start the enzymatic reaction, and after incubation at 4° C. for 4 minutes, a solution of ferric chloride (25 mM) and citric acid (50 mM) was added to terminate the enzymatic reaction. Generated PGE2 (Prostaglandin E2) was measured by using Prostaglandin E2 Express EIA Kit (Cayman Chemical). IC50 values were determined by using a standard method.

Row | SMILES | IC50 [nM]
1 | O=C(NCc1ccc(C(F)(F)F)c(-c2nc(C(F)(F)F)cc(=O)[nH]2)c1F)C1CCN(c2ccc3nccn3n2)CC1 [Example 1, N-{2-fluoro-3-[6-oxo-4-(trifluoromethyl)-1,6-dihydropyrimidin-2-yl]-4-(trifluoromethyl)benzyl}-1-(imidazo[1,2-b]pyridazin-6-yl)piperidine-4-carboxamide] | 37
2 | O=C(NCc1ccc(C(F)(F)F)c(-c2nc(C(F)(F)F)cc(=O)[nH]2)c1F)c1ccc(-c2ccc3nccn3n2)cc1 [Example 2, N-{2-fluoro-3-[6-oxo-4-(trifluoromethyl)-1,6-dihydropyrimidin-2-yl]-4-(trifluoromethyl)benzyl}-4-(imidazo[1,2-b]pyridazin-6-yl)benzamide] | 28.7
3 | Cc1cnc2ccc(N3CCC(C(=O)NCc4ccc(C(F)(F)F)c(-c5nc(C(F)(F)F)cc(=O)[nH]5)c4F)CC3)nn12 [Example 3, N-{2-fluoro-3-[6-oxo-4-(trifluoromethyl)-1,6-dihydropyrimidin-2-yl]-4-(trifluoromethyl)benzyl}-1-(3-methylimidazo[1,2-b]pyridazin-6-yl)piperidine-4-carboxamide] | < 1
4 | Cc1cccc2ccc(N3CCC(C(=O)NCc4ccc(C(F)(F)F)c(-c5nc(C(F)(F)F)cc(=O)[nH]5)c4F)CC3)nc12 [Example 4, N-{2-fluoro-3-[6-oxo-4-(trifluoromethyl)-1,6-dihydropyrimidin-2-yl]-4-(trifluoromethyl)benzyl}-1-(8-methylquinolin-2-yl)piperidine-4-carboxamide] | < 1
5 | O=C(NCc1ccc(C(F)(F)F)c(-c2nc(C(F)(F)F)cc(=O)[nH]2)c1F)C1CCN(c2ccc3ccccc3n2)CC1 [Example 5, N-{2-fluoro-3-[6-oxo-4-(trifluoromethyl)-1,6-dihydropyrimidin-2-yl]-4-(trifluoromethyl)benzyl}-1-(quinolin-2-yl)piperidine-4-carboxamide] | < 10
6 | Cc1cccc2ccc(N3CC(C(=O)NCc4ccc(C(F)(F)F)c(-c5nc(C(F)(F)F)cc(=O)[nH]5)c4F)C3)nc12 [Example 6, N-{2-fluoro-3-[6-oxo-4-(trifluoromethyl)-1,6-dihydropyrimidin-2-yl]-4-(trifluoromethyl)benzyl}-1-(8-methylquinolin-2-yl)azetidine-3-carboxamide] | < 10
7 | Cc1cccc2ccc(N3CCC(C(=O)NCc4ccc(C(F)(F)F)c(-c5nccc(=O)[nH]5)c4F)CC3)nc12 [Example 7, N-[2-fluoro-3-(6-oxo-1,6-dihydropyrimidin-2-yl)-4-(trifluoromethyl)benzyl]-1-(8-methylquinolin-2-yl)piperidine-4-carboxamide] | < 1
8 | Cc1cccc2ccc(N3CCC(C(=O)NCc4ccc(Cl)c(-c5nccc(=O)[nH]5)c4)CC3)nc12 [Example 8, N-[4-chloro-3-(6-oxo-1,6-dihydropyrimidin-2-yl)benzyl]-1-(8-methylquinolin-2-yl)piperidine-4-carboxamide] | 0.64
9 | Cc1cc(=O)[nH]c(-c2c(C(F)(F)F)ccc(CNC(=O)C3CCN(c4ccc5cccc(C)c5n4)CC3)c2F)n1 [Example 9, N-[2-fluoro-3-(4-methyl-6-oxo-1,6-dihydropyrimidin-2-yl)-4-(trifluoromethyl)benzyl]-1-(8-methylquinolin-2-yl)piperidine-4-carboxamide] | < 10
10 | CCc1cc(=O)[nH]c(-c2c(C(F)(F)F)ccc(CNC(=O)C3CCN(c4ccc5cccc(C)c5n4)CC3)c2F)n1 [Example 10, N-[3-(4-ethyl-6-oxo-1,6-dihydropyrimidin-2-yl)-2-fluoro-4-(trifluoromethyl)benzyl]-1-(8-methylquinolin-2-yl)piperidine-4-carboxamide] | < 1
11 | Cc1cccc2ccc(N3CCC(C(=O)NCc4ccc(C(F)(F)F)c(-c5nc(C(C)C)cc(=O)[nH]5)c4F)CC3)nc12 [Example 11, N-[2-fluoro-3-(4-isopropyl-6-oxo-1,6-dihydropyrimidin-2-yl)-4-(trifluoromethyl)benzyl]-1-(8-methylquinolin-2-yl)piperidine-4-carboxamide] | < 1
12 | Cc1cccc2ccc(N3CCC(C(=O)NCc4ccc(C(F)(F)F)c(-c5nc(C(F)F)cc(=O)[nH]5)c4F)CC3)nc12 [Example 12, N-{3-[4-(difluoromethyl)-6-oxo-1,6-dihydropyrimidin-2-yl]-2-fluoro-4-(trifluoromethyl)benzyl}-1-(8-methylquinolin-2-yl)piperidine-4-carboxamide] | 2.1
13 | Cc1nc(-c2c(C(F)(F)F)ccc(CNC(=O)C3CCN(c4ccc5cccc(C)c5n4)CC3)c2F)[nH]c(=O)c1C [Example 13, N-[3-(4,5-dimethyl-6-oxo-1,6-dihydropyrimidin-2-yl)-2-fluoro-4-(trifluoromethyl)benzyl]-1-(8-methylquinolin-2-yl)piperidine-4-carboxamide] | 2.4
14 | Cc1nc(-c2c(C(F)(F)F)ccc(CNC(=O)C3CCN(c4ccc5cccc(C)c5n4)CC3)c2F)[nH]c(=O)c1F [Example 14, N-[2-fluoro-3-(5-fluoro-4-methyl-6-oxo-1,6-dihydropyrimidin-2-yl)-4-(trifluoromethyl)benzyl]-1-(8-methylquinolin-2-yl)piperidine-4-carboxamide] | < 1
15 | Cc1cccc2ccc(N3CCC(F)(C(=O)NCc4ccc(C(F)(F)F)c(-c5nc(C(F)(F)F)cc(=O)[nH]5)c4F)CC3)nc12 [Example 15, 4-fluoro-N-{2-fluoro-3-[6-oxo-4-(trifluoromethyl)-1,6-dihydropyrimidin-2-yl]-4-(trifluoromethyl)benzyl}-1-(8-methylquinolin-2-yl)piperidine-4-carboxamide] | < 1
16 | Cc1cccc(N2CCC(C(=O)NCc3ccc(C(F)(F)F)c(-c4nc(C(F)(F)F)cc(=O)[nH]4)c3F)CC2)n1 [Example 17, N-{2-fluoro-3-[6-oxo-4-(trifluoromethyl)-1,6-dihydropyrimidin-2-yl]-4-(trifluoromethyl)benzyl}-1-(6-methylpyridin-2-yl)piperidine-4-carboxamide] | < 10
17 | O=C(NCc1ccc(C(F)(F)F)c(-c2nc(C(F)(F)F)cc(=O)[nH]2)c1F)C1CCN(c2ccccn2)CC1 [Example 19, N-{2-fluoro-3-[6-oxo-4-(trifluoromethyl)-1,6-dihydropyrimidin-2-yl]-4-(trifluoromethyl)benzyl}-1-(pyridin-2-yl)piperidine-4-carboxamide] | < 1

Other lines, results leading:

Row | IC50 [nM] | SMILES
18 | < 1 | O=c1cc(C(F)(F)F)nc(-c2c(C(F)(F)F)ccc(CNC(=O)[C@H]3C[C@@H](OCc4cccc(Cl)c4)C3)c2F)[nH]1 (stereo in doubt) [Example 139, cis-3-[(3-chlorobenzyl)oxy]-N-{2-fluoro-3-[6-oxo-4-(trifluoromethyl)-1,6-dihydropyrimidin-2-yl]-4-(trifluoromethyl)benzyl}cyclobutane-1-carboxamide]
19 | < 1 | O=C(NCc1ccc(C(F)(F)F)c(-c2nc(C(F)(F)F)cc(=O)[nH]2)c1F)C1CCN(c2ccc(C(F)(F)F)cn2)CC1 [Example 20, N-{2-fluoro-3-[6-oxo-4-(trifluoromethyl)-1,6-dihydropyrimidin-2-yl]-4-(trifluoromethyl)benzyl}-1-[5-(trifluoromethyl)pyridin-2-yl]piperidine-4-carboxamide]
20 | < 1 | O=C(NCc1ccc(C(F)(F)F)c(-c2nc(C(F)(F)F)cc(=O)[nH]2)c1F)C1CCN(c2ccc(C(F)(F)F)nc2)CC1 [Example 21, N-{2-fluoro-3-[6-oxo-4-(trifluoromethyl)-1,6-dihydropyrimidin-2-yl]-4-(trifluoromethyl)benzyl}-1-[6-(trifluoromethyl)pyridin-3-yl]piperidine-4-carboxamide]
21 | 4.9 | O=C(NCc1ccc(C(F)(F)F)c(-c2nc(C(F)(F)F)cc(=O)[nH]2)c1F)C1CCN(c2cccc(C(F)(F)F)n2)CC1 [Example 22, N-{2-fluoro-3-[6-oxo-4-(trifluoromethyl)-1,6-dihydropyrimidin-2-yl]-4-(trifluoromethyl)benzyl}-1-[6-(trifluoromethyl)pyridin-2-yl]piperidine-4-carboxamide]
22 | 4.8 | CCc1cc(=O)[nH]c(-c2c(C(F)(F)F)ccc(CNC(=O)C3CCN(c4ccc(C(F)(F)F)cn4)CC3)c2F)n1 [Example 23, N-[3-(4-ethyl-6-oxo-1,6-dihydropyrimidin-2-yl)-2-fluoro-4-(trifluoromethyl)benzyl]-1-[5-(trifluoromethyl)pyridin-2-yl]piperidine-4-carboxamide]
23 | 76 | CCc1cc(=O)[nH]c(-c2c(C(F)(F)F)ccc(CNC(=O)C3CCN(c4cccc(C)n4)CC3)c2F)n1 [Example 24, N-[3-(4-ethyl-6-oxo-1,6-dihydropyrimidin-2-yl)-2-fluoro-4-(trifluoromethyl)benzyl]-1-(6-methylpyridin-2-yl)piperidine-4-carboxamide]
24 | < 1 | O=C(NCc1ccc(C(F)(F)F)c(-c2nc(C(F)(F)F)cc(=O)[nH]2)c1F)C1CN(c2ccc(C(F)(F)F)cn2)C1 [Example 25, N-{2-fluoro-3-[6-oxo-4-(trifluoromethyl)-1,6-dihydropyrimidin-2-yl]-4-(trifluoromethyl)benzyl}-1-[5-(trifluoromethyl)pyridin-2-yl]azetidine-3-carboxamide]

Reference: patent US20250340557A1, “PYRIMIDINE DERIVATIVE” (ASKA PHARMACEUTICAL CO., LTD., priority 2022, published 2025)
